Results on twelve compounds are retold here after ChEMBL document CHEMBL1201862, “PubChem BioAssay data set” (2004).

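Cells were grown in 96-well plates and exposed to each compound for 48 hours at five concentrations; endpoints were interpolated linearly between bracketing concentrations, or set to the highest concentration if not reached. GI50 marks 50% less growth.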 Active and inactive are the calls of the source. Rule as the data show it: active = GI50 up to about 1.1 µM and inactive = higher.

Among the test systems are KM12; HL-60; HCT-116; SR; UACC-62; MOLT-4; SF-268; Malme-3M; UO-31; U-251; SW-620; CAKI-1; SK-MEL-5; COLO 205; 786-0; NCI-H460; ACHN; MCF7; NCI/ADR-RES; T47D.
Common to all, as to assay: growth of human tumour cells (NCI), 48 h

In the case of `CCOc1ccccc1NC(=O)C(=O)CC(=O)c1sc(Nc2nnc(-c3ccc(Cl)c(Cl)c3)o2)nc1C`, the GI50 in the assay with KM12, in the assay on HL-60, with HCT-116, in the assay on SR, in the assay with UACC-62 and in the assay with MOLT-4 was > 100 µM (inactive) each time. Moreover, the GI50 in the assay with SF-268 was > 100 µM (inactive); with Malme-3M, > 100 µM (inactive); in the assay with UO-31, > 100 µM (inactive); with U-251, 18.8 µM (inactive); in the assay on SW-620 it was 33.5 µM (inactive); with CAKI-1, > 100 µM (inactive). Also, the GI50 was > 100 µM (inactive) with SK-MEL-5; > 100 µM (inactive) with COLO 205; > 100 µM (inactive) with 786-0; 51.8 µM (inactive) with NCI-H460; > 100 µM (inactive) with ACHN.

For `O=c1[nH]c2ccc(CC(=S)N3CCOCC3)cc2s1`, the GI50 with KM12 is > 100 µM (inactive); with HL-60, 53.6 µM (inactive); with HCT-116, > 100 µM (inactive); in the assay on SR it was > 100 µM (inactive); with UACC-62 it was > 100 µM (inactive); in the assay with MOLT-4, > 100 µM (inactive). The GI50 in the assay on SF-268, with MCF7, in the assay on Malme-3M, in the assay on U-251, in the assay on SW-620 and in the assay with CAKI-1 was > 100 µM (inactive) throughout. The GI50 with SK-MEL-5, in the assay with NCI/ADR-RES, in the assay with COLO 205, in the assay with 786-0, in the assay on NCI-H460 and in the assay with ACHN was > 100 µM (inactive) each time.

Turning to `CCOC(=O)c1cn2c(n1)sc1cccc(C)c12`, the GI50 in the assay on KM12, in the assay with HCT-116, in the assay with UACC-62, in the assay with SF-268, in the assay on MCF7 and in the assay on Malme-3M was > 100 µM (inactive) in each case. The GI50 is 72.8 µM (inactive) in the assay with UO-31; > 100 µM (inactive) in the assay with CAKI-1; 63.4 µM (inactive) with SK-MEL-5; > 100 µM (inactive) in the assay with NCI/ADR-RES; > 100 µM (inactive) in the assay with COLO 205; > 100 µM (inactive) in the assay with 786-0. The values for the GI50 in the assay with NCI-H460 and with ACHN were 71.8 µM (inactive) and > 100 µM (inactive), respectively.

In the case of `CC(C)CC(NC(=O)C(CI)Cc1ccccc1)C(=O)Nc1ccccc1` (stereo not given), the GI50 in the assay with KM12 is > 100 µM (inactive); in the assay on HL-60, > 100 µM (inactive); in the assay with HCT-116, > 100 µM (inactive); in the assay with SR, 68.9 µM (inactive); with UACC-62 it was > 100 µM (inactive); with MOLT-4, > 100 µM (inactive). In addition, the GI50 in the assay on MCF7, in the assay with Malme-3M, in the assay on UO-31, in the assay with U-251, in the assay on SW-620 and in the assay with CAKI-1 was > 100 µM (inactive) throughout. Besides, the GI50 in the assay on SK-MEL-5, in the assay with NCI/ADR-RES, in the assay on COLO 205, in the assay on 786-0, in the assay with NCI-H460 and in the assay with ACHN was > 100 µM (inactive) in each case.

Take `COc1ccc(/C=C2\NC(=S)N(CN3CCOCC3)C2=O)cc1`: the GI50 in the assay with KM12, in the assay with HCT-116, in the assay on SR, in the assay on UACC-62, in the assay on MOLT-4 and with SF-268 was > 100 µM (inactive) throughout. Moreover, the GI50 in the assay with MCF7, with Malme-3M, with UO-31, in the assay on U-251, with SW-620 and with SK-MEL-5 was > 100 µM (inactive) in each case. Besides, the GI50 with NCI/ADR-RES, in the assay on COLO 205, in the assay with 786-0 and with ACHN was > 100 µM (inactive) each time.

Regarding `O=C1CSC(c2c[nH]c3ccccc23)N1c1cccc(Cl)c1` (stereo not given), the GI50 in the assay with KM12 is 50.1 µM (inactive); with HL-60, 36.6 µM (inactive); with HCT-116 it was 29.5 µM (inactive); in the assay with UACC-62, 45.8 µM (inactive); in the assay with MOLT-4, 38.5 µM (inactive); with SF-268 it was 89.5 µM (inactive). The GI50 in the assay with MCF7 is 39.6 µM (inactive); in the assay with UO-31, 84.5 µM (inactive); in the assay with U-251 it was 37.2 µM (inactive); in the assay on SW-620, 50.7 µM (inactive); in the assay on SK-MEL-5, 40 µM (inactive); in the assay on T47D, > 100 µM (inactive). Further, the GI50 was 36.1 µM (inactive) in the assay with NCI/ADR-RES; 50.7 µM (inactive) in the assay on COLO 205; 25.5 µM (inactive) in the assay on 786-0; 37.6 µM (inactive) in the assay on NCI-H460; 24.2 µM (inactive) in the assay with ACHN.

Regarding `CC1=NN(c2nc(N)nc(-c3sccc3N)n2)C(C)(C)C1`, the GI50 is 46.1 µM (inactive) with KM12; 71.3 µM (inactive) with HL-60; 96.4 µM (inactive) with HCT-116; 58.3 µM (inactive) in the assay with UACC-62; 83.9 µM (inactive) in the assay on MOLT-4; > 100 µM (inactive) in the assay with SF-268. Moreover, the GI50 was 78 µM (inactive) in the assay on MCF7; 47.3 µM (inactive) in the assay on Malme-3M; > 100 µM (inactive) with UO-31; > 100 µM (inactive) in the assay on U-251; > 100 µM (inactive) in the assay with SW-620; > 100 µM (inactive) in the assay on CAKI-1. For the same compound, the GI50 in the assay on SK-MEL-5 is 41.1 µM (inactive); in the assay with NCI/ADR-RES, 37.1 µM (inactive); in the assay on COLO 205, 79.1 µM (inactive); in the assay with 786-0, > 100 µM (inactive); in the assay with NCI-H460, 81.1 µM (inactive); in the assay with ACHN, > 100 µM (inactive).

`COc1ccc(NC(=O)/C(O)=C/C(=O)c2ccccc2)cc1`: the GI50 with KM12 is > 10 µM (inactive); in the assay with HL-60, > 10 µM (inactive); in the assay on SR, 1.74 µM (inactive); with UACC-62 it was > 10 µM (inactive); with MOLT-4, 1.95 µM (inactive); with SF-268, > 10 µM (inactive). The GI50 in the assay with MCF7, with Malme-3M, in the assay with SW-620, with CAKI-1, in the assay with SK-MEL-5 and in the assay with T47D was > 10 µM (inactive) throughout. For the same compound, the GI50 in the assay on COLO 205 and with 786-0 was > 10 µM (inactive) in each case.

`Cc1ccc(-n2c(Cn3nnc(-c4cccnc4)n3)nn(C3OC(COC(=O)c4ccccc4)C(OC(=O)c4ccccc4)C3OC(=O)c3ccccc3)c2=S)cc1` (stereo not given): the GI50 in the assay on KM12, in the assay on HCT-116, in the assay with UACC-62, with MOLT-4, in the assay on SF-268 and with MCF7 was > 100 µM (inactive) in each case. Moreover, the GI50 was 38.4 µM (inactive) with Malme-3M; > 100 µM (inactive) with UO-31; > 100 µM (inactive) in the assay with U-251; > 100 µM (inactive) in the assay on SW-620; > 100 µM (inactive) with CAKI-1; > 100 µM (inactive) with SK-MEL-5. Further, the GI50 in the assay on T47D, in the assay on NCI/ADR-RES, in the assay with COLO 205, with 786-0, in the assay with NCI-H460 and in the assay with ACHN was > 100 µM (inactive) each time.

Turning to `COc1cc(O)c2c(c1)C(=O)c1cc3c(c(O)c1C2=O)C(OC1OC(C)C(OC)C(O)C1OC)C(OC)C(C)(O)C3=O` (stereo not given), the GI50 in the assay with KM12 is 3.7 µM (inactive); in the assay on HL-60, 2.79 µM (inactive); in the assay on HCT-116, 2.81 µM (inactive); in the assay on SR it was 1.64 µM (inactive); in the assay on MOLT-4, 3.14 µM (inactive); in the assay on SF-268, 5.55 µM (inactive). For the same compound, the GI50 was 5.58 µM (inactive) in the assay with MCF7; 2.39 µM (inactive) with Malme-3M; 5.33 µM (inactive) in the assay on U-251; 3.6 µM (inactive) in the assay on SW-620; 3.04 µM (inactive) with CAKI-1; 1.68 µM (inactive) in the assay on SK-MEL-5. Also, the GI50 in the assay with COLO 205 was 3.09 µM (inactive); in the assay on 786-0, 5.28 µM (inactive); in the assay with NCI-H460 it was 2.72 µM (inactive); with ACHN, 2.14 µM (inactive).

Take `CC(=O)C1C(=O)C(=O)N(c2ccc(Br)cc2)C1=O` (stereo not given): the GI50 in the assay on KM12, with HL-60, with HCT-116, with UACC-62, in the assay with MOLT-4 and in the assay on SF-268 was > 100 µM (inactive) throughout. Moreover, the GI50 in the assay with MCF7, in the assay on UO-31, in the assay with U-251, in the assay with SW-620, in the assay on CAKI-1 and in the assay with SK-MEL-5 was > 100 µM (inactive) throughout. The GI50 with NCI/ADR-RES, in the assay on COLO 205, in the assay with 786-0, in the assay with NCI-H460 and with ACHN was > 100 µM (inactive) each time.

Turning to `CC(C)C[C@H](NC(=O)[C@@H](N)Cc1cccc2ccccc12)B(O)O`, the GI50 in the assay with KM12 is 0.0281 µM (active); in the assay on HCT-116, < 0.0165 µM (active); in the assay on SR it was < 0.0154 µM (active); in the assay on UACC-62 it was 0.0482 µM (active); with MOLT-4, < 0.0177 µM (active); in the assay with MCF7 it was < 0.0232 µM (active). Further, the GI50 with Malme-3M is 0.0224 µM (active); in the assay with UO-31, 0.0331 µM (active); in the assay with U-251, 0.0416 µM (active); with SW-620 it was < 0.015 µM (active); in the assay on CAKI-1, < 0.0164 µM (active); with SK-MEL-5 it was < 0.0169 µM (active). Also, the GI50 is 0.0168 µM (active) with T47D; 0.0417 µM (active) with COLO 205; < 0.0216 µM (active) in the assay on 786-0; 0.0695 µM (active) in the assay with NCI-H460; 0.189 µM (active) in the assay on ACHN.
